Tested on: wheals induced by intradermal injections of 1γ of histamine
Assay: reduction by 50% of wheals induced by intradermal injections of histamine in guinea pigs
Type: in vivo
Conditions: Cavia porcellus, po, 1 h, orally administered one hour prior to intradermal injection of 1γ histamine, read-out: ED50 (amount of compound required to reduce by 50% wheals induced by intradermal injections of histamine)
Excerpt: To illustrate the utility of the compounds of this invention the following tabulation indicates the amount of certain representative compounds of this invention required to reduce by 50% wheals induced by intradermal injections of 1γ of histamine into guinea pigs. Each compound was orally administered one hour prior to the histamine injection.

Structure (SMILES) | ED50
Cl.O=C(CCCN1CCC(C(O)(c2ccccc2)c2ccccc2)CC1)c1ccc(C2CCCC2)cc1 [4'-Cyclopentyl-4-[4-(α-hydroxy-α-phenylbenzyl)piperidino]-butyrophenone hydrochloride] | 2.5 mg/kg
Cc1ccc(C(=C2CCN(CCCC(=O)c3ccc(C(C)(C)C)cc3)CC2)c2ccccc2)cc1.Cl [4'-tert-Butyl-4-[4-[α-(p-tolyl)benzylidene]piperidino]-butyrophenone hydrochloride] | ~10 mg/kg
CC(C)(C)c1ccc(C(=O)CCCN2CCC(C(O)(c3ccccc3)c3ccc(Cl)cc3)CC2)cc1.Cl (stereo not drawn) [4'-tert-Butyl-4-[4-[α-hydroxy-α-(p-chlorophenyl)benzyl]-piperidino]butyrophenone hydrochloride] | 27 mg/kg
Cc1ccc(C(O)(c2ccccc2)C2CCN(CCCC(=O)c3ccc(C(C)(C)C)cc3)CC2)cc1.Cl (stereo not drawn) [4'-tert-Butyl-4-[4-[α-hydroxy-α-(p-tolyl)benzyl]piperidino]-butyrophenone hydrochloride] | 6 mg/kg
Cl.O=C(CCCN1CCC(C(O)(c2ccccc2)c2ccccc2)CC1)c1ccc2ccccc2c1 [4-[4-(α-Hydroxy-α-phenylbenzyl)piperidino]-1-(2-naphthyl)-butan-1-one hydrochloride] | 3.6 mg/kg
CC(C)(C)Cc1ccc(C(=O)CCCN2CCC(C(O)(c3ccccc3)c3ccccc3)CC2)cc1.Cl [4-[4-(α-Hydroxy-α-phenylbenzyl)piperidino]-4'-neopentyl-butyrophenone hydrochloride] | 0.5 mg/kg

— US3931197A, “Substituted piperidine derivatives” (Richardson-Merrell Inc., priority 1974, dated 1976)
